The values below come from PubChem BioAssay (NCI).

Some test systems named below: BT-549 breast; CCRF-CEM leukemia; EKVX NSCLC; HCT-15 colon; HOP-92 NSCLC; HS 578T breast; LOX IMVI melanoma; MDA-N; MOLT-4 leukemia; NCI-H460 lung; RPMI-8226 leukemia; SF-539 CNS; SNB-19 CNS; UACC-257 melanoma; UO-31 renal.
What all share (assay): NCI tumour cell line growth inhibition, 48 h

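Grown in 96-well plates, cells were treated for 48 hours with each compound at five concentrations. Insufficient inhibition: endpoint recorded as highest concentration tested. TGI marks complete inhibition of growth.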

`CCOC(=O)CCN1C(=O)c2ccc(NC(=O)C(=O)O)cc2S1(=O)=O`: the TGI in the test on BT-549 breast, in the test on CCRF-CEM leukemia, in the test with EKVX NSCLC, in the test on HCT-15 colon, in the test on HOP-92 NSCLC and in the test with HS 578T breast was over 100 µM throughout. The TGI with LOX IMVI melanoma, in the test on MDA-N, with MOLT-4 leukemia, in the test with NCI-H460 lung, in the test on RPMI-8226 leukemia and in the test with SF-539 CNS was over 100 µM each time. For the same molecule, the TGI in the test with SNB-19 CNS, in the test on UACC-257 melanoma and with UO-31 renal was over 100 µM each time.
As for `CCOC(=O)NC(OCCN(C)C)(C(F)(F)F)C(F)(F)F`, the TGI in the test on BT-549 breast, in the test with CCRF-CEM leukemia, with EKVX NSCLC, in the test with HCT-15 colon, with HOP-92 NSCLC and with HS 578T breast was over 100 µM throughout. Further, the TGI with LOX IMVI melanoma, in the test on MDA-N, in the test with MOLT-4 leukemia, in the test with NCI-H460 lung, with RPMI-8226 leukemia and in the test on SF-539 CNS was over 100 µM throughout. The TGI in the test with SNB-19 CNS, with UACC-257 melanoma and in the test with UO-31 renal was over 100 µM each time.
As for `CC(C)/C(Cl)=N/OC(NC(=O)Nc1ccc(Cl)c(Cl)c1)(C(F)(F)F)C(F)(F)F`, the TGI amounted to 25.7 µM in the test on BT-549 breast; 5.71 µM in the test on CCRF-CEM leukemia; 38.1 µM in the test with EKVX NSCLC; 28.9 µM in the test with HCT-15 colon; 29.7 µM in the test on HOP-92 NSCLC; 99.4 µM with HS 578T breast. Also, the TGI in the test with LOX IMVI melanoma was 14.7 µM; with MDA-N it was 32.3 µM; with MOLT-4 leukemia it was 12 µM; in the test with NCI-H460 lung, 56.4 µM; with RPMI-8226 leukemia, 4.7 µM; in the test with SF-539 CNS, 33.2 µM. The TGI amounted to 41 µM with SNB-19 CNS, 25.9 µM in the test with UACC-257 melanoma and 31.3 µM in the test with UO-31 renal.
Take `CNc1nc2c(C)ccc3nc(N(C)C)nc-3c2n1C`: the TGI with BT-549 breast, in the test with CCRF-CEM leukemia, in the test on EKVX NSCLC, in the test on HCT-15 colon, in the test on HOP-92 NSCLC and in the test with HS 578T breast was over 10 µM throughout. The TGI in the test with MDA-N, in the test with MOLT-4 leukemia, with NCI-H460 lung, in the test on RPMI-8226 leukemia, in the test on SF-539 CNS and in the test with SNB-19 CNS was over 10 µM each time. Further, the TGI in the test on UACC-257 melanoma and with UO-31 renal was over 10 µM in each case.
Regarding `COc1ccc2c(c1)nc1n2C(c2c(F)cccc2F)SC1` (configuration not stated), the TGI in the test with BT-549 breast, in the test on CCRF-CEM leukemia, in the test on EKVX NSCLC, with HCT-15 colon, with HOP-92 NSCLC and in the test with HS 578T breast was over 100 µM each time. Besides, the TGI with LOX IMVI melanoma, with MDA-N, in the test with MOLT-4 leukemia, in the test on NCI-H460 lung, in the test on RPMI-8226 leukemia and with SF-539 CNS was over 100 µM throughout. The TGI in the test on SNB-19 CNS, in the test on UACC-257 melanoma and with UO-31 renal was over 100 µM in each case.
As to `O=S(=O)(O)c1ccc(N=Nc2c(O)ccc3ccccc23)cc1`, the TGI in the test on BT-549 breast, with CCRF-CEM leukemia, with EKVX NSCLC, in the test with HCT-15 colon, with HOP-92 NSCLC and with HS 578T breast was over 100 µM throughout. The TGI in the test with LOX IMVI melanoma, with MDA-N, with MOLT-4 leukemia, in the test with NCI-H460 lung, in the test with RPMI-8226 leukemia and with SF-539 CNS was over 100 µM in each case. The TGI in the test on SNB-19 CNS, with UACC-257 melanoma and in the test on UO-31 renal was over 100 µM each time.
Regarding `COc1nc(N)nc2c1n(C)c[n+]2C`, the TGI in the test on BT-549 breast, in the test with CCRF-CEM leukemia, with EKVX NSCLC, with HCT-15 colon, in the test on HOP-92 NSCLC and with HS 578T breast was over 100 µM throughout. Further, the TGI with LOX IMVI melanoma, with MDA-N, with MOLT-4 leukemia, in the test on NCI-H460 lung, in the test on RPMI-8226 leukemia and in the test on SF-539 CNS was over 100 µM throughout. Besides, the TGI with SNB-19 CNS, in the test with UACC-257 melanoma and with UO-31 renal was over 100 µM each time.
As for `COc1ccc(OC)c2sc(N3C(=O)/C(=C/c4ccc(N(C)C)cc4)N=C3c3ccccc3)nc12`, the TGI is over 100 µM with BT-549 breast; 24.5 µM in the test with CCRF-CEM leukemia; over 100 µM with EKVX NSCLC; over 100 µM with HCT-15 colon; over 100 µM with HOP-92 NSCLC; over 100 µM in the test with HS 578T breast. Also, the TGI in the test on LOX IMVI melanoma was over 100 µM; in the test on MDA-N, 61.3 µM; in the test with MOLT-4 leukemia, 65.7 µM; in the test with NCI-H460 lung it was over 100 µM; in the test on RPMI-8226 leukemia, over 100 µM; with SF-539 CNS it was over 100 µM. In addition, the TGI in the test with SNB-19 CNS, in the test with UACC-257 melanoma and in the test on UO-31 renal was over 100 µM throughout.
On to `CCOC(=O)C(C)c1nc2cc(F)c(N3CCOCC3)cc2[nH]c1=O` (configuration not stated), for which the TGI in the test on BT-549 breast, in the test on CCRF-CEM leukemia, in the test with EKVX NSCLC, in the test on HCT-15 colon, with HOP-92 NSCLC and in the test with HS 578T breast was over 100 µM each time. Also, the TGI in the test with MDA-N, in the test on MOLT-4 leukemia, with NCI-H460 lung, in the test on RPMI-8226 leukemia, with SF-539 CNS and in the test on SNB-19 CNS was over 100 µM each time. Also, the TGI with UACC-257 melanoma and in the test with UO-31 renal was over 100 µM each time.
On to `O=c1ccc(-c2ccc(-n3ccnc3)cc2)nn1CCO`, for which the TGI with BT-549 breast, in the test with CCRF-CEM leukemia, with EKVX NSCLC, in the test on HCT-15 colon, with HOP-92 NSCLC and with HS 578T breast was over 100 µM throughout. Besides, the TGI with MDA-N, with MOLT-4 leukemia, in the test on NCI-H460 lung, in the test on RPMI-8226 leukemia, in the test with SF-539 CNS and in the test on SNB-19 CNS was over 100 µM throughout. For the same molecule, the TGI with UACC-257 melanoma and with UO-31 renal was over 100 µM throughout.
